Where two headings read alike, the source gives them in different places. Values belong to the compound of their own block, whether it stands above or below them. Square brackets hold non-standard residues; d marks the D form. Ends that are not written are not given here. Peptide text beside a SMILES is read from it. * marks the point of attachment. Biotin = O=C1N[C@H]2[C@H](CS[C@H]2CCCCC(=O)*)N1; Bpa = N[C@@H](Cc1ccc(C(=O)c2ccccc2)cc1)C(=O)O; Decanoyl = CCCCCCCCCC(=O)*; Octanoyl = CCCCCCCC(=O)*; Ava = NCCCCC(=O)O
How the values were obtained:
Assay type in all cases: biochemical, yeast (Saccharomyces cerevisae)
[1] = target: T1, yeast activated 20S proteasome (CT-L activity) (Saccharomyces cerevisiae, UniProt P23724+P30656); assay: Inhibition of the CT-L (chymotrypsin-like) peptidase activity of the activated 20S proteasome, substrate Suc-LLVY-amc; settings: for Increase of the inhibitory capacity compared with the unmodified peptide (factor): lipopeptide versus corresponding peptide, CT-L activity of activated 20S proteasome; for Inhibitory effect of the lipopeptides on the CT-L activity: yeast activated 20S proteasome, after treatment with 35 μM of lipopeptide (17.5 μM for C18/TVTYKF)
T1 construct: The yeast (Saccharomyces cerevisae) 26S and 20S proteasomes were purified according to the protocol described in; made in house; host or cells: Saccharomyces cerevisiae (native complex purified from yeast by the cited Leggett et al. 2002 protocol)
Method: (§1) The yeast (Saccharomyces cerevisae) 26S and 20S proteasomes were purified according to the protocol described in: LEGGETT et al. (2002) Molecular Cell, 10, pp 495-507.
(§2) The peptidase activities were determined using the fluorogenic substrates Suc-LLVY-amc (CT-L), Z-LLE-βNA (PA) and Boc-LRR-amc (T-L), provided by the company Bachem (Voisins-le-Bretonneux, France).
(§3) The peptidase activities of the yeast and Xenopus 26S proteasomes and those of the yeast 20S proteasome, latent and activated, were determined under the conditions described in Table II.
(§4) The compounds studied are solubilized in the buffer (peptides, pseudopeptides) or in DMSO (lipopeptides, photoactivatable peptides). The enzyme is preincubated (15 min at 30° C.) in the corresponding buffer (Table II), in the presence of the inhibitor. For the cases where the inhibitor is solubilized in DMSO (lipopeptides, photoactivatable peptides), the control without inhibitor contains an amount of DMSO identical to that of the assays with inhibitor (3.5% v/v). The reaction is triggered by adding the substrate. It is continuously monitored for 30 min at 30° C. The initial rates of the assays with inhibitors (calculated from the experimental points) are compared with those of the controls. The results presented were obtained by calculating the mean of at least two independent assays. The variability is less than 10%.
(§5) The IC50 parameter corresponds to the concentration of inhibitor that results in a 50% loss of enzymatic activity.
(§6) The enzyme is preincubated in the presence of increasing concentrations of inhibitor. The reaction is triggered by adding the substrate (see paragraph “Detection and study of the inhibitory effects”). The percentage inhibition is calculated from equation 1.
(§7) The experimental points describe the evolution of the inhibitory effect of the compound studied as a function of its concentration. As a general rule, they fit with the curve described by equation 2 in which [I] is the concentration of inhibitor
The mechanism of inhibition is determined by tracing the curve of the evolution of the V0/Vi ratio as a function of the concentration of inhibitor.

[2] = target: T2, activated 20S proteasome (PA activity) (Saccharomyces cerevisiae, UniProt P25043+P38624); assay: Inhibition of the post-acid (PA) peptidase activity of the activated 20S proteasome, substrate Z-LLE-βNA
T2 construct: The yeast (Saccharomyces cerevisae) 26S and 20S proteasomes were purified according to the protocol described in; made in house; host or cells: Saccharomyces cerevisiae (native complex purified from yeast by the cited Leggett et al. 2002 protocol)
Method: as §1, §2, §3, §4, §5, §6, §7

[3] = target: T3, latent 20S proteasome (CT-L activity) (Saccharomyces cerevisiae, UniProt P23724+P30656); assay: Activating effect on the CT-L activity of the latent 20S proteasome (activation factor fa); design: key: fa = initial rate with compound / initial rate of control (Va/V0); settings: fa = Va/V0, concentration not given
T3 construct: The yeast (Saccharomyces cerevisae) 26S and 20S proteasomes were purified according to the protocol described in; made in house; host or cells: Saccharomyces cerevisiae (native complex purified from yeast by the cited Leggett et al. 2002 protocol)
Method: as §1, §2, §3
(§8) The compounds studied are solubilized in the buffer or in DMSO. The enzyme is preincubated (15 minutes at 30° C.) in the corresponding buffer (Table II), in the presence of the molecule to be tested. When the molecule is solubilized in DMSO, the control (no addition molecule to be tested) contains an amount of DMSO identical to that of the assays(3.5% v/v). The reaction is triggered by adding the substrate. It is continuously monitored for 30 minutes at 30° C. The results presented were obtained by calculating the mean of at least two independent assays. An activation is characterized by an activity, after treatment with the molecule tested, of greater than 100%. The variability is less than 10%. The results are expressed by means of an activation factor fa equal to the ratio of the initial rate Va in the presence of the compound tested to the initial rate of the control V0.

[4] = target: T4, latent 20S proteasome (T-L activity) (Saccharomyces cerevisiae, UniProt P25043+P25451); assay: Activating effect on the T-L activity of the latent 20S proteasome (activation factor fa); settings: fa = Va/V0, concentration not given
T4 construct: The yeast (Saccharomyces cerevisae) 26S and 20S proteasomes were purified according to the protocol described in; made in house; host or cells: Saccharomyces cerevisiae (native complex purified from yeast by the cited Leggett et al. 2002 protocol)
Method: as §1, §2, §3, §8

[5] = activated 20S proteasome, read-out: CT-L activity: IC50

Compound: CCCCCCCC(=O)N[C@H](C(=O)N[C@H](C(=O)N[C@H](C(=O)N[C@@H](Cc1ccc(O)cc1)C(=O)N[C@@H](CCCCN)C(=O)N[C@@H](Cc1ccccc1)C(=O)O)[C@@H](C)O)C(C)C)[C@@H](C)O [C8/TVTYKF, CH3—(CH2)6—CO-TVTYKF] (Octanoyl-TVTYKF-OH; C-terminus assumed)
IC50 [1, 5]: ~35 µM
Increase of the inhibitory capacity compared with the unmodified peptide (factor) [1]: 17
Inhibitory effect of the lipopeptides on the CT-L activity [1]: 50%

Compound: CCCCCCCCCC(=O)N[C@H](C(=O)N[C@H](C(=O)N[C@H](C(=O)N[C@@H](Cc1ccccc1)C(=O)N[C@@H](CCCCN)C(=O)N[C@@H](Cc1ccccc1)C(=O)O)[C@@H](C)O)C(C)C)[C@@H](C)O [C10/TVTFKF, CH3—(CH2)8—CO-TVTFKF] (Decanoyl-TVTFKF-OH; C-terminus assumed)
IC50 [1, 5]: ~35 µM
Increase of the inhibitory capacity compared with the unmodified peptide (factor) [1]: 6.5
Inhibitory effect of the lipopeptides on the CT-L activity [1]: 42%

Compound: CC(C)C[C@@H](CNCC(=O)N1CCC[C@H]1C(=O)N[C@@H](CO)C(=O)O)NC(=O)[C@H](CC(N)=O)NC(=O)[C@@H](N)[C@@H](C)O [Pseudopeptide 1, TNL-ψ[CH2—NH]-GPS]
Mechanism of inhibition (kinetic analysis, V0/Vi versus inhibitor concentration) ([1]; activated 20S proteasome): reacts with the catalytic sites and the regulatory site(s)
IC50 ([1]; estimated values, activity type not named at the place, peptide tested under conditions where its hydrolysis is negligible, read-out: IC50 (activated 20S proteasome inhibitor)): 380 µM
inhibition at 500 µM ([2]; inhibitor 500 μM): 63%

IC50 ([1]; enzyme form and activity not stated at the place, read-out: IC50): 32 µM
Compound: CC(C)[C@H](NC(=O)[C@@H](NC(=O)CCCCNC(=O)CCCC[C@@H]1SC[C@@H]2NC(=O)N[C@@H]21)[C@@H](C)O)C(=O)N[C@H](C(=O)N[C@@H](Cc1ccc(C(=O)c2ccccc2)cc1)C(=O)N[C@@H](CCCCN)C(=O)N[C@@H](Cc1ccccc1)C(=O)O)[C@@H](C)O [Pseudopeptide 3, Biot-Ava-TVT-Bpa-KF] ({Biotin-Ava}-TVT[Bpa]KF-OH; C-terminus assumed)

Compound: Ac-TNL-ψ[CH2—NH]-GPS [Pseudopeptide 2]
Effectiveness relative to pseudopeptide 1 ([1]; activated 20S proteasome): half as effective as 1
Inhibition of the post-acid activity PA ([2]; inhibitor 1 mM): 28%

Compound: CH3—(CH2)12—CO-TVTYKF [C14/TVTYKF]
Inhibitory effect of the lipopeptides on the CT-L activity [1]: 0%
fa CT-L activity [3]: 2

Compound: CH3—(CH2)14—CO-TITFDY [C16/TITFDY]
Inhibitory effect of the lipopeptides on the CT-L activity [1]: 20%
fa CT-L activity [3]: 3

Compound: CH3—(CH2)14—CO-TVTYKF
fa CT-L activity [3]: 2

Compound: CH3—(CH2)16—CO-TITFDY [C18/TITFDY]
Inhibitory effect of the lipopeptides on the CT-L activity [1]: 34%
fa CT-L activity [3]: 6
fa T-L activity [4]: 1.2

Compound: CH3—(CH2)16—CO-TVTYKF
fa CT-L activity [3]: 3.2

Compound: TITFDY [reference compound]
fa CT-L activity [3]: 5
fa T-L activity [4]: 3

Compound: TITYDF
fa T-L activity [4]: 2.5

Compound: TITYEY [reference compound]
fa CT-L activity [3]: 2

Compound: TITYKF [TITYKF, reference compound]
Mechanism of inhibition (kinetic analysis, V0/Vi versus inhibitor concentration) ([1]; activated 20S proteasome): parabolic kinetics
IC50 [1, 5]: 260 µM
IC50 [2]: 336 µM

Compound: TVTFKF [TVTFKF, reference compound]
Mechanism of inhibition (kinetic analysis, V0/Vi versus inhibitor concentration) ([1]; activated 20S proteasome): parabolic kinetics
IC50 [1, 5]: 229 µM
IC50 [2]: 210 µM
fa CT-L activity [3]: 2.3
fa T-L activity [4]: 1.7

Reference: patent US20080076718A1, “Novel Proteasome Modulators” (priority 2003, published 2008)
